Laboratory results from the NIST ThermoML archive (doi:10.1021/je800026p).

Assay: xn = mol fraction of the nth substance listed
Conditions: 101 kPa, Liquid; for mass density: Vibrating tube method; for speed of sound: Sing-around technique in a fixed-path interferometer

CCCCCCOCCOCCO [2-(2-hexyloxyethoxy)ethanol] + CCCCNCCCC
Conditions | mass density, 298.15 K [kg/m3] | mass density, 303.15 K [kg/m3] | mass density, 308.15 K [kg/m3] | speed of sound, 303.15 K [m/s] | speed of sound, 308.15 K [m/s]
x1 = 0.0974 | 779.614 | 775.187 | 771.079 | 1243.7 | 1225.3
x1 = 0.1441 | 789.859 | 785.667 | 781.545 | 1251 | 1232.2
x1 = 0.1908 | 799.885 | 795.785 | 791.662 | 1258.2 | 1239.2
x1 = 0.253 | 812.825 | 808.731 | 804.6 | 1267.7 | 1248.7
x1 = 0.2986 | 821.948 | 817.838 | 813.671 | 1274.5 | 1255.5
x1 = 0.3606 | 833.834 | 829.692 | 825.52 | 1283.4 | 1264.8
x1 = 0.4018 | 841.423 | 837.274 | 833.078 | 1289.3 | 1270.9
x1 = 0.4584 | 851.46 | 847.291 | 843.095 | 1297 | 1279.1
x1 = 0.5091 | 860.074 | 855.914 | 851.724 | 1303.8 | 1286.2
x1 = 0.5435 | 865.751 | 861.602 | 857.401 | 1308.2 | 1290.8
x1 = 0.587 | 872.72 | 868.58 | 864.406 | 1313.6 | 1296.5
x1 = 0.6097 | 876.278 | 872.165 | 867.972 | 1316.4 | 1299.4
x1 = 0.6572 | 883.547 | 879.461 | 875.302 | 1322 | 1305
x1 = 0.7023 | 890.259 | 886.201 | 882.052 | 1327 | 1310.1
x1 = 0.7451 | 896.459 | 892.397 | 888.281 | 1331.6 | 1314.5
x1 = 0.8144 | 906.103 | 902.062 | 897.98 | 1338.5 | 1320.9
x1 = 0.8675 | 913.137 | 909.095 | 905.045 | 1343.3 | 1325
x1 = 0.9083 | 918.3 | 914.27 | 910.231 | 1346.8 | 1327.7
x1 = 0.9414 | 922.323 | 918.281 | 914.269 | 1349.3 | 1329.5
